Experimental data: ChEMBL document CHEMBL4020759, “Sulfoximines as ATR inhibitors: Analogs of VE-821” (2017)
Activity calls are given as the source filed them. No cut-off for these calls is given here.

Experiments:
786-0 = assay: Growth inhibition of human 786-0 cells assessed as cell growth at 10 uM incubated for 48 hrs by sulforhodamine B assay; format: functional; conditions: 786-0, 48 h, read-out: Activity
HOP-62 = assay: Growth inhibition of human HOP62 cells assessed as cell growth at 10 uM incubated for 48 hrs by sulforhodamine B assay; format: functional; conditions: HOP-62, 48 h, read-out: Activity
SK-MEL-2 = assay: Growth inhibition of human SK-MEL-2 cells assessed as cell growth at 10 uM incubated for 48 hrs by sulforhodamine B assay; format: functional; conditions: SK-MEL-2, 48 h, read-out: Activity
M14 = assay: Growth inhibition of human M14 cells assessed as cell growth at 10 uM incubated for 48 hrs by sulforhodamine B assay; format: functional; conditions: M14, 48 h, read-out: Activity
[1] = molecular target: Serine/threonine-protein kinase ATR (Homo sapiens) (UniProt Q13535); assay: Inhibition of ATR in human U2OS cells assessed as reduction in hydroxyurea-induced Chk-1 phosphorylation at Ser345 residue by measuring ratio of GAPDH level to phosphorylated Chk-1 level at 3 uM preincubated for 1 hr followed by hydroxyurea challenge measured after 2 hrs by Western blot analysis; format: cell-based
SNB-75 = assay: Growth inhibition of human SNB75 cells assessed as cell growth at 10 uM incubated for 48 hrs by sulforhodamine B assay; format: functional; conditions: SNB-75, 48 h, read-out: Activity
HL-60(TB) = assay: Growth inhibition of human HL-60(TB) cells assessed as cell growth at 10 uM incubated for 48 hrs by sulforhodamine B assay; format: functional; conditions: HL-60, 48 h, read-out: Activity
SK-MEL-28 = assay: Growth inhibition of human SK-MEL-28 cells assessed as cell growth at 10 uM incubated for 48 hrs by sulforhodamine B assay; format: functional; conditions: SK-MEL-28, 48 h, read-out: Activity
CCRF-CEM = assay: Growth inhibition of human CCRF-CEM cells assessed as cell growth at 10 uM incubated for 48 hrs by sulforhodamine B assay; format: functional; conditions: read-out: Activity
[2] = molecular target: Serine/threonine-protein kinase ATR (Homo sapiens) (UniProt Q13535); assay: Inhibition of ATR in human U2OS cells assessed as reduction in hydroxyurea-induced H2AX phosphorylation at Ser139 residue at 3 to 10 uM preincubated for 1 hr followed by hydroxyurea challenge measured after 2 hrs by Western blot analysis; format: cell-based
TK-10 = assay: Growth inhibition of human TK10 cells assessed as cell growth at 10 uM incubated for 48 hrs by sulforhodamine B assay; format: functional; conditions: TK-10, 48 h, read-out: Activity
[3] = molecular target: Serine/threonine-protein kinase ATR (Homo sapiens) (UniProt Q13535); assay: Inhibition of ATR in human U2OS cells assessed as reduction in etoposide-induced Chk-1 phosphorylation at Ser345 residue at 10 uM preincubated for 1 hr followed by etoposide challenge measured after 20 mins by Western blot analysis; format: cell-based
DU-145 = assay: Growth inhibition of human DU145 cells assessed as cell growth at 10 uM incubated for 48 hrs by sulforhodamine B assay; format: functional; conditions: DU-145, 48 h, read-out: Activity
SF-539 = assay: Growth inhibition of human SF539 cells assessed as cell growth at 10 uM incubated for 48 hrs by sulforhodamine B assay; format: functional; conditions: SF-539, 48 h, read-out: Activity
CAKI-1 = assay: Growth inhibition of human Caki1 cells assessed as cell growth at 10 uM incubated for 48 hrs by sulforhodamine B assay; format: functional; conditions: CAKI-1, 48 h, read-out: Activity
RPMI-8226 = assay: Growth inhibition of human RPMI8226 cells assessed as cell growth at 10 uM incubated for 48 hrs by sulforhodamine B assay; format: functional; conditions: RPMI-8226, 48 h, read-out: Activity
NCI-H322M = assay: Growth inhibition of human NCI-H322M cells assessed as cell growth at 10 uM incubated for 48 hrs by sulforhodamine B assay; format: functional; conditions: read-out: Activity
[4] = molecular target: Serine-protein kinase ATM (Homo sapiens) (UniProt Q13315); assay: Inhibition of ATM in human U2OS cells assessed as reduction in hydroxyurea-induced Chk-2 phosphorylation at Thr68 residue at 10 uM preincubated for 1 hr followed by hydroxyurea challenge measured after 1 hr by Western blot analysis; format: cell-based
OVCAR-3 = assay: Growth inhibition of human OVCAR3 cells assessed as cell growth at 10 uM incubated for 48 hrs by sulforhodamine B assay; format: functional; conditions: OVCAR-3, 48 h, read-out: Activity
RXF 393 = assay: Growth inhibition of human RXF393 cells assessed as cell growth at 10 uM incubated for 48 hrs by sulforhodamine B assay; format: functional; conditions: RXF 393, 48 h, read-out: Activity
A498 = assay: Growth inhibition of human A498 cells assessed as cell growth at 10 uM incubated for 48 hrs by sulforhodamine B assay; format: functional; conditions: A498, 48 h, read-out: Activity
Hs-578T = assay: Growth inhibition of human Hs578T cells assessed as cell growth at 10 uM incubated for 48 hrs by sulforhodamine B assay; format: functional; conditions: read-out: Activity
EKVX = assay: Growth inhibition of human EKVX cells assessed as cell growth at 10 uM incubated for 48 hrs by sulforhodamine B assay; format: functional; conditions: read-out: Activity
K562 = assay: Growth inhibition of human K562 cells assessed as cell growth at 10 uM incubated for 48 hrs by sulforhodamine B assay; format: functional; conditions: K562, 48 h, read-out: Activity
SNB-19 = assay: Growth inhibition of human SNB19 cells assessed as cell growth at 10 uM incubated for 48 hrs by sulforhodamine B assay; format: functional; conditions: SNB-19, 48 h, read-out: Activity
OVCAR-4 = assay: Growth inhibition of human OVCAR4 cells assessed as cell growth at 10 uM incubated for 48 hrs by sulforhodamine B assay; format: functional; conditions: OVCAR-4, 48 h, read-out: Activity
HT-29 = assay: Growth inhibition of human HT-29 cells assessed as cell growth at 10 uM incubated for 48 hrs by sulforhodamine B assay; format: functional; conditions: HT-29, 48 h, read-out: Activity
[5] = molecular target: Serine/threonine-protein kinase ATR (Homo sapiens) (UniProt Q13535); assay: Inhibition of ATR in human U2OS cells assessed as reduction in hydroxyurea-induced Chk-1 phosphorylation at Ser345 residue preincubated for 1 hr followed by hydroxyurea challenge measured after 2 hrs by Western blot analysis; format: cell-based
NCI-H522 = assay: Growth inhibition of human NCI-H522 cells assessed as cell growth at 10 uM incubated for 48 hrs by sulforhodamine B assay; format: functional; conditions: NCI-H522, 48 h, read-out: Activity
UACC-62 = assay: Growth inhibition of human UACC62 cells assessed as cell growth at 10 uM incubated for 48 hrs by sulforhodamine B assay; format: functional; conditions: UACC-62, 48 h, read-out: Activity
[6] = molecular target: Serine/threonine-protein kinase ATR (Homo sapiens) (UniProt Q13535); assay: Inhibition of ATR in human U2OS cells assessed as reduction in hydroxyurea-induced Chk-1 phosphorylation at Ser345 residue by measuring ratio of GAPDH level to phosphorylated Chk-1 level at 10 uM preincubated for 1 hr followed by hydroxyurea challenge measured after 2 hrs by Western blot analysis; format: cell-based
T47D = assay: Growth inhibition of human T47D cells assessed as cell growth at 10 uM incubated for 48 hrs by sulforhodamine B assay; format: functional; conditions: read-out: Activity
Ramos = assay: Induction of apoptosis in human Ramos cells assessed as increase PARP-1 cleavage at 10 uM after 48 hrs by Western blot analysis; format: functional, cell-based

Sequence of Serine/threonine-protein kinase ATR (Homo sapiens) (Q13535 whole entry, looked up): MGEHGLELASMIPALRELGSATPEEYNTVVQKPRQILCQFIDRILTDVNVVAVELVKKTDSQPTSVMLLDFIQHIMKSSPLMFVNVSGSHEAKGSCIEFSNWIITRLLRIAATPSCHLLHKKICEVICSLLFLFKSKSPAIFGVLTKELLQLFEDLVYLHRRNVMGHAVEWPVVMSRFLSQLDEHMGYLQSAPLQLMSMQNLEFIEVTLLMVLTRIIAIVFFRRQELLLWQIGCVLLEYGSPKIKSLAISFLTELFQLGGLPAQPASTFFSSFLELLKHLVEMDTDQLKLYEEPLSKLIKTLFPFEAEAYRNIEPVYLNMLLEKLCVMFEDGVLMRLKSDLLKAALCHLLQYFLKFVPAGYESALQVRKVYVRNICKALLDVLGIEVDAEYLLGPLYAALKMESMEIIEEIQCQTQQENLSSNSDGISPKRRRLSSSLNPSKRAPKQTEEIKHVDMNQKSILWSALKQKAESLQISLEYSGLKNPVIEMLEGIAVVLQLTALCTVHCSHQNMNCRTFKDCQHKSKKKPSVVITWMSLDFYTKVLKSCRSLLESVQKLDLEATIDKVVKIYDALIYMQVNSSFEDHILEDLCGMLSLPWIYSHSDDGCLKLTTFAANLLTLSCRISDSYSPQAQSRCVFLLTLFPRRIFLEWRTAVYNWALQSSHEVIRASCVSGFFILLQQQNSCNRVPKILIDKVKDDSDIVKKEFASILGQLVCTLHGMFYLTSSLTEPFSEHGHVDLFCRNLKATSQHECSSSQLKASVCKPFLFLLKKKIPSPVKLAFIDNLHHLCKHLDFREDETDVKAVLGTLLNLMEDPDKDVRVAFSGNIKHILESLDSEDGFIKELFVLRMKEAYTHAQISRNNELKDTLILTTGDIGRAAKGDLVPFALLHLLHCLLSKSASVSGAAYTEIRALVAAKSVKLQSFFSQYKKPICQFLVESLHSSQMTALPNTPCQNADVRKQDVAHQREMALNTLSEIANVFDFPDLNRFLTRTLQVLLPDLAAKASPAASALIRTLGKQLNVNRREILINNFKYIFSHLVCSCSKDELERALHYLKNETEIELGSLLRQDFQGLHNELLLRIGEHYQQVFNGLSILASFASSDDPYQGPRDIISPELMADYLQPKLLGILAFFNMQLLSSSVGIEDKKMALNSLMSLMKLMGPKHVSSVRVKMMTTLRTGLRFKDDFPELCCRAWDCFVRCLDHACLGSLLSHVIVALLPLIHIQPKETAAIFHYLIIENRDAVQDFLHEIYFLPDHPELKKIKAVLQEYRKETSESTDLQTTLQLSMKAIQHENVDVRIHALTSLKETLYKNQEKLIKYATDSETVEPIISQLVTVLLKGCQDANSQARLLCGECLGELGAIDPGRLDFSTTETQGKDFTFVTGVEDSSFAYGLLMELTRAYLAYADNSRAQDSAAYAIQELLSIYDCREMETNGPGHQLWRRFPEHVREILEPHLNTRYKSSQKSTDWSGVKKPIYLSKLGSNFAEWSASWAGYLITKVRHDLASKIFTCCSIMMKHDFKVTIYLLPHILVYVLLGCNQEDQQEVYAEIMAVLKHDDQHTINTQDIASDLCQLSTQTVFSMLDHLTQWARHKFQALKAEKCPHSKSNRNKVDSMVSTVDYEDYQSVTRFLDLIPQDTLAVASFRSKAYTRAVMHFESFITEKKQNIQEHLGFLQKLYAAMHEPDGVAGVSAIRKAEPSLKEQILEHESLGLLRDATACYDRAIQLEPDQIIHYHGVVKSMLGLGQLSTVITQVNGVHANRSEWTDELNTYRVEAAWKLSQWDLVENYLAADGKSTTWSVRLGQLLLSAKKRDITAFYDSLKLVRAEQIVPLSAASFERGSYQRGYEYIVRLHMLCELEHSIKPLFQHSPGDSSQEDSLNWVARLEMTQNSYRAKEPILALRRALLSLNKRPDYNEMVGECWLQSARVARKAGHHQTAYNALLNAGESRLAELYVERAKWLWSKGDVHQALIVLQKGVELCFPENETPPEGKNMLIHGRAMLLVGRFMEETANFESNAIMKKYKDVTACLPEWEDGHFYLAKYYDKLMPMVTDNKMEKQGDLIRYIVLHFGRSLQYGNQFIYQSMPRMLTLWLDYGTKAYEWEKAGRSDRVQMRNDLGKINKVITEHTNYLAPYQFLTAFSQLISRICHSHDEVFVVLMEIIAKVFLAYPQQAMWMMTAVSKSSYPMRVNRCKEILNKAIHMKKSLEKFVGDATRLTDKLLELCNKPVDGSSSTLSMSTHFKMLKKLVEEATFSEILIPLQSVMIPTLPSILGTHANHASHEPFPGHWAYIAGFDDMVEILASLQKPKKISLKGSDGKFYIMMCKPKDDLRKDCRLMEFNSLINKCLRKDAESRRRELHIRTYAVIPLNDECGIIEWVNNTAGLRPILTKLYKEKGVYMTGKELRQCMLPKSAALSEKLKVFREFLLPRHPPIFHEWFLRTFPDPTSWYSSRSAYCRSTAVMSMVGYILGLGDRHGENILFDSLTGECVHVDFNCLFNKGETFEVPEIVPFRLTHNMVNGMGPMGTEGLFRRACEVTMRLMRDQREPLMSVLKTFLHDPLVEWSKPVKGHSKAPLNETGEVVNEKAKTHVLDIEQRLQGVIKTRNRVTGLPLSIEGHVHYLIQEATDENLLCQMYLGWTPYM

## CS(=O)(=NC#N)c1ccc(-c2cnc(N)c(C(=O)Nc3ccccc3)n2)cc1 (stereo unspecified)
786-0
  growth at 10 µM: 45.5%
HOP-62
  growth at 10 µM: 97%
SK-MEL-2
  growth at 10 µM: 94%
M14
  growth at 10 µM: 77.7%
[1]
  Ratio: 58.1
SNB-75
  growth at 10 µM: 56.9%
HL-60(TB)
  growth at 10 µM: 108%
SK-MEL-28
  growth at 10 µM: 111%
CCRF-CEM
  growth at 10 µM: 79.9%
[2]
  inhibition: Dose-dependent effect
TK-10
  growth at 10 µM: 97.4%
[3]
  inhibition: Active
DU-145
  growth at 10 µM: 75.6%
SF-539
  growth at 10 µM: 69%
CAKI-1
  growth at 10 µM: 47.2%
RPMI-8226
  growth at 10 µM: 105%
NCI-H322M
  growth at 10 µM: 78.6%
[4]
  inhibition: inactive
OVCAR-3
  growth at 10 µM: 89.4%
RXF 393
  growth at 10 µM: 71%
A498
  growth at 10 µM: 76.1%
Hs-578T
  growth at 10 µM: 55%
EKVX
  growth at 10 µM: 88.1%
K562
  growth at 10 µM: 70.8%
SNB-19
  growth at 10 µM: 105%
OVCAR-4
  growth at 10 µM: 97%
HT-29
  growth at 10 µM: 79.9%
[5]
  inhibition: Dose-dependent effect
NCI-H522
  growth at 10 µM: 86.8%
UACC-62
  growth at 10 µM: 74.7%
[6]
  Ratio: 43.1
T47D
  growth at 10 µM: 99%
Ramos
  Activity: Active

## C/S(=N\C#N)c1ccc(-c2cnc(N)c(C(=O)Nc3ccccc3)n2)cc1 (stereo unspecified)
786-0
  growth at 10 µM: 59.5%
HOP-62
  growth at 10 µM: 110%
SK-MEL-2
  growth at 10 µM: 92.2%
M14
  growth at 10 µM: 69.5%
[1]
  Ratio: 40.1
SNB-75
  growth at 10 µM: 65.2%
HL-60(TB)
  growth at 10 µM: 79.2%
SK-MEL-28
  growth at 10 µM: 97.4%
CCRF-CEM
  growth at 10 µM: 83.5%
[2]
  inhibition: Dose-dependent effect
TK-10
  growth at 10 µM: 93.6%
[3]
  inhibition: Active
DU-145
  growth at 10 µM: 80.3%
SF-539
  growth at 10 µM: 85.7%
CAKI-1
  growth at 10 µM: 53.2%
RPMI-8226
  growth at 10 µM: 101%
NCI-H322M
  growth at 10 µM: 71.3%
[4]
  inhibition: inactive
OVCAR-3
  growth at 10 µM: 83.4%
RXF 393
  growth at 10 µM: 62.9%
A498
  growth at 10 µM: 86.3%
Hs-578T
  growth at 10 µM: 74.6%
EKVX
  growth at 10 µM: 107%
K562
  growth at 10 µM: 62.2%
SNB-19
  growth at 10 µM: 104%
OVCAR-4
  growth at 10 µM: 87.3%
HT-29
  growth at 10 µM: 76.3%
[5]
  inhibition: Dose-dependent effect
NCI-H522
  growth at 10 µM: 77.2%
UACC-62
  growth at 10 µM: 82.2%
[6]
  Ratio: 22.5
T47D
  growth at 10 µM: 82.9%
Ramos
  Activity: Active
